Reference: patent US20250340560A1, “SUBSTITUTED PYRAZOLO[1,5-a]PYRIMIDINES AS BRUTON'S TYROSINE KINASE MODULATORS” (BEIGENE SWITZERLAND GMBH, priority 2013, published 2025)
Counter-ions that a name gives are not always drawn.

These molecules were tested against Recombinant Btk (Homo sapiens (Human), UniProt Q06187) (assay: BTK kinase assay (TR-FRET)). Conditions: IC50 (nM) Btk, 1 hour pre-incubation, ATP at Km.
Chain of Recombinant Btk (Q06187 whole entry): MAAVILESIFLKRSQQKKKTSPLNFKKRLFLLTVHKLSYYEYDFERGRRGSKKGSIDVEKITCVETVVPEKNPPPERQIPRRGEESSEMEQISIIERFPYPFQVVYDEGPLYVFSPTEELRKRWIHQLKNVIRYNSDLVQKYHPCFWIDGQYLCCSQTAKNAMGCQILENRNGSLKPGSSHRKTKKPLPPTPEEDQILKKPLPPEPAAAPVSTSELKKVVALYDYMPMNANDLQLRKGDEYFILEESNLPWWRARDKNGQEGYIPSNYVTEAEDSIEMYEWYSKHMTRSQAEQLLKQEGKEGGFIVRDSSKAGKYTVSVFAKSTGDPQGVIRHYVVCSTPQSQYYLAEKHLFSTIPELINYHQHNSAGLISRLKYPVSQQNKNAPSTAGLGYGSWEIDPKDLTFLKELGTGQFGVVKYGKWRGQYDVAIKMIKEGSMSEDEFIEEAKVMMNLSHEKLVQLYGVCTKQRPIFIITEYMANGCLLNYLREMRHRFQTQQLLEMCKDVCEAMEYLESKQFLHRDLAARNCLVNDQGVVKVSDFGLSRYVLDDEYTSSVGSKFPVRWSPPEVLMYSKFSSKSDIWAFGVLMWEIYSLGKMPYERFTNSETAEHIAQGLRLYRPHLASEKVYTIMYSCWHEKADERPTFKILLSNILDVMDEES

Q: How did the IC50 turn out when `C=CC(=O)Nc1ccccc1C1CCNc2c(C(N)=O)c(-c3ccc(OCc4ccccc4)cc3)nn21` (single isomer, unassigned) [Compound 10b] was run?
A: 42 nM

Same assay, conditions: read-out: IC50 (nM) Btk; 1 hour pre-incubation, ATP at Km

Q: `NC(=O)c1c(-c2ccc(Oc3ccccc3)cc2)nn2c1NC[C@H]1CNC[C@H]12` (relative stereo) [Compound 115] was tested. Which IC50 did it give?
A: 8200 nM

Q: Which IC50 does the source give for `C=CC(=O)N1CCC2[C@H](CNc3c(C(N)=O)c(-c4ccc(Oc5ccccc5)cc4)nn32)C1` (single isomer, unassigned) [Compound 30b] here?
A: 16 nM

Q: For `CC(C)(C)OC(=O)N1CC2[C@@H](CNc3c(C(N)=O)c(-c4ccc(Oc5ccccc5)cc4)nn32)C1` (single isomer, unassigned) [Compound 114, Cis-7-(1-tert-Butoxycarbonyl)-2-(4-phenoxyphenyl)-5,5a,6,7,8,8a-hexahydro-4H-pyrazolo[1,5-a]pyrrolo[3,4-e]pyrimidine-3-carboxamide], which IC50 is on record?
A: 6000 nM

Q: With `N#Cc1c(-c2ccc(Oc3ccccc3)cc2)nn2c(-c3cccc(N)c3)ccnc12` [Compound 1, 7-(3-Aminophenyl)-2-(4-phenoxyphenyl)pyrazolo[1,5-a]pyrimidine-3-carbonitrile] as the molecule, how does the IC50 read?
A: > 10000 nM

Q: With `NC(=O)c1c(-c2ccc(Oc3ccccc3)cc2)nn2c1NCCC2c1cccc(N)c1` (stereo not drawn) [Compound 2, 7-(3-Aminophenyl)-2-(4-phenoxyphenyl)-4,5,6,7-tetrahydropyrazolo [1,5-a]pyrimidine-3-carboxamide] as the molecule, how does the IC50 read?
A: 360 nM

Q: How did the IC50 turn out when `NC(=O)c1c(-c2ccc(Oc3ccccc3)cc2)nn2c(-c3cccc(N)c3)ccnc12` [Compound 7, 7-(3-Aminophenyl)-2-(4-phenoxyphenyl)pyrazolo[1,5-a]pyrimidine-3-carboxamide] was run?
A: > 10000 nM

Q: `NC(=O)c1c(-c2ccc(OCc3ccccc3)cc2)nn2c1NCCC2c1ccccc1N` (stereo not drawn) [Compound 9, 7-(2-Aminophenyl)-2-(4-(benzyloxy)phenyl)-4,5,6,7-tetrahydro pyrazolo[1,5-a]pyrimidine-3-carboxamide] was tested. Which IC50 did it give?
A: 3700 nM

Q: For `NC(=O)c1c(-c2ccc(Oc3ccc(F)cc3)cc2)nn2c1NCCC2c1ccccc1N` (stereo not drawn) [Compound 11, 7-(2-Aminophenyl)-2-(4-(4-fluorophenoxy)phenyl)-4,5,6,7-tetrahydro pyrazolo[1,5-a]pyrimidine-3-carboxamide], which IC50 is on record?
A: 4500 nM

Q: Which IC50 does the source give for `C=CC(=O)Nc1ccccc1C1CCNc2c(C(N)=O)c(-c3ccc(Oc4ccc(F)cc4)cc3)nn21` (stereo not drawn) [Compound 12, 7-(2-Acrylamidophenyl)-2-(4-(4-fluorophenoxy)phenyl)-4,5,6,7-tetrahydropyrazolo[1,5-a]pyrimidine-3-carboxamide] here?
A: 1.7 nM

Q: With `CNc1ccccc1C1CCNc2c(C(N)=O)c(-c3ccc(Oc4ccc(F)cc4)cc3)nn21` (stereo not drawn) [Compound 15, 2-(4-(4-Fluorophenoxy)phenyl)-7-(2-(methylamino)phenyl)-4,5,6,7-tetrahydropyrazolo[1,5-a]pyrimidine-3-carboxamide] as the molecule, how does the IC50 read?
A: 2700 nM

Q: With `C=CC(=O)N(C)c1ccccc1C1CCNc2c(C(N)=O)c(-c3ccc(Oc4ccc(F)cc4)cc3)nn21` (stereo not drawn) [Compound 16, 2-(4-(4-Fluorophenoxy)phenyl)-7-(2-(N-methylacrylamido)phenyl)-4,5,6,7-tetrahydropyrazolo[1,5-a]pyrimidine-3-carboxamide] as the molecule, how does the IC50 read?
A: 19 nM

Q: For `NC(=O)c1c(-c2ccc(OC3CCCC3)cc2)nn2c1NCCC2c1ccccc1N` (stereo not drawn) [Compound 17, 7-(2-Aminophenyl)-2-(4-(cyclopentyloxy)phenyl)-4,5,6,7-tetrahydro pyrazolo[1,5-a]pyrimidine-3-carboxamide], which IC50 is on record?
A: > 10000 nM

Q: `NC(=O)c1c(-c2ccc(OCC3CC3)cc2)nn2c1NCCC2c1ccccc1N` (stereo not drawn) [Compound 19, 7-(2-Aminophenyl)-2-(4-(cyclopropylmethoxy)phenyl)-4,5,6,7-tetrahydropyrazolo[1,5-a]pyrimidine-3-carboxamide] was tested. Which IC50 did it give?
A: 5300 nM

Q: How did the IC50 turn out when `COCCOc1ccc(-c2nn3c(c2C(N)=O)NCCC3c2ccccc2N)cc1` (stereo not drawn) [Compound 21, 7-(2-Aminophenyl)-2-(4-(2-methoxyethoxy)phenyl)-4,5,6,7-tetrahydropyrazolo[1,5-a]pyrimidine-3-carboxamide] was run?
A: > 10000 nM

Q: How did the IC50 turn out when `NC(=O)c1c(-c2ccc(OC3CCOCC3)cc2)nn2c1NCCC2c1ccccc1N` (stereo not drawn) [Compound 23, 7-(2-Aminophenyl)-2-(4-(tetrahydro-2H-pyran-4-yloxy)phenyl)-4,5,6,7-tetrahydropyrazolo[1,5-a]pyrimidine-3-carboxamide] was run?
A: 3200 nM

Q: For `C=CC(=O)Nc1ccccc1C1CCNc2c(C(N)=O)c(-c3ccc(OC4CCOCC4)cc3)nn21` (stereo not drawn) [Compound 24, 7-(2-Acrylamidophenyl)-2-(4-(tetrahydro-2H-pyran-4-yloxy)phenyl)-4,5,6,7-tetrahydropyrazolo[1,5-a]pyrimidine-3-carboxamide], which IC50 is on record?
A: 39 nM

Q: With `CC(C)(C)OC(=O)N1CCC(C2CCNc3c(C(N)=O)c(-c4ccc(Oc5ccccc5)cc4)nn32)CC1` (stereo not drawn) [Compound 25, 7-(1-(Tert-butoxycarbonyl)piperidin-4-yl)-2-(4-phenoxyphenyl)-4,5,6,7-tetrahydropyrazolo[1,5-a]pyrimidine-3-carboxamide] as the molecule, how does the IC50 read?
A: 3100 nM

Q: Which IC50 does the source give for `NC(=O)c1c(-c2ccc(Oc3ccccc3)cc2)nn2c1NCCC2C1CCNCC1` (stereo not drawn) [Compound 26, 7-(Piperidin-4-yl)-2-(4-phenoxyphenyl)-4,5,6,7-tetrahydropyrazolo [1,5-a]pyrimidine-3-carboxamide trifluoroacetate] here?
A: 1700 nM

Q: With `NCC1CCNc2c(C(N)=O)c(-c3ccc(Oc4ccccc4)cc3)nn21` (stereo not drawn) [Compound 32, 7-(Aminomethyl)-2-(4-phenoxyphenyl)-4,5,6,7-tetrahydropyrazolo [1,5-a]pyrimidine-3-carboxamide] as the molecule, how does the IC50 read?
A: 1700 nM

Q: How did the IC50 turn out when `CNCC1CCNc2c(C(N)=O)c(-c3ccc(Oc4ccccc4)cc3)nn21` (stereo not drawn) [Compound 34, 7-((Methylamino)methyl)-2-(4-phenoxyphenyl)-4,5,6,7-tetrahydro pyrazolo[1,5-a]pyrimidine-3-carboxamide] was run?
A: 1900 nM

Q: For `C=CC(=O)N(C)CC1CCNc2c(C(N)=O)c(-c3ccc(Oc4ccccc4)cc3)nn21` (stereo not drawn) [Compound 35], which IC50 is on record?
A: 1.1 nM

Q: `NCC1CCNc2c(C(N)=O)c(-c3cnn(Cc4ccccc4)c3)nn21` (stereo not drawn) [Compound 36, 7-(Aminomethyl)-2-(1-benzyl-1H-pyrazol-4-yl)-4,5,6,7-tetrahydro pyrazolo[1,5-a]pyrimidine-3-carboxamide trifluoroacetate] was tested. Which IC50 did it give?
A: > 10000 nM

Q: Which IC50 does the source give for `C=CC(=O)NCC1CCNc2c(C(N)=O)c(-c3cnn(Cc4ccccc4)c3)nn21` (stereo not drawn) [Compound 37, 7-(Acrylamidomethyl)-2-(1-benzyl-1H-pyrazol-4-yl)-4,5,6,7-tetrahydropyrazolo[1,5-a]pyrimidine-3-carboxamide] here?
A: 640 nM

Q: Which IC50 does the source give for `NC(=O)c1c(-c2ccc(Oc3ccccc3)cc2)nn2c1NCC21CCN(Cc2ccccc2)CC1` [Compound 38, 1′-Benzyl-6-(4-phenoxyphenyl)-1,2-dihydrospiro[imidazo[1,2-b]pyrazole-3,4′-piperidine]-7-carboxamide] here?
A: 490 nM

Q: Which IC50 does the source give for `NC(=O)c1c(-c2ccc(Oc3ccccc3)cc2)nn2c1NCC21CCNCC1` [Compound 39, 6-(4-Phenoxyphenyl)-1,2-dihydrospiro[imidazo[1,2-b]pyrazole-3,4′-piperidine]-7-carboxamide] here?
A: 1400 nM

Q: How did the IC50 turn out when `NC(=O)c1c(-c2ccc(Oc3ccccc3)cc2)nn2c1NCCC21CCN(Cc2ccccc2)CC1` [Compound 41, 1-Benzyl-2′-(4-phenoxyphenyl)-5′,6′-dihydro-4′H-spiro[piperidine-4,7′-pyrazolo[1,5-a]pyrimidine]-3′-carboxamide] was run?
A: 180 nM

Q: Which IC50 does the source give for `NC(=O)c1c(-c2ccc(Oc3ccccc3)cc2)nn2c1NCCC21CCNCC1` [Compound 42, 2′-(4-Phenoxyphenyl)-5′,6′-dihydro-4′H-spiro[piperidine-4,7′-pyrazolo [1,5-a]pyrimidine]-3′-carboxamide trifluoroacetate] here?
A: 330 nM

Q: Which IC50 does the source give for `C=CC(=O)N1CCC2(CCNc3c(C(N)=O)c(-c4ccc(Oc5ccccc5)cc4)nn32)CC1` [Compound 43, 1-Acryloyl-2′-(4-phenoxyphenyl)-5′,6′-dihydro-4′H-spiro[piperidine-4,7′-pyrazolo[1,5-a]pyrimidine]-3′-carboxamide] here?
A: 3 nM

Q: With `NC(=O)c1c(-c2ccc(Oc3ccccc3)cc2)nn2c1NCC21CN(Cc2ccccc2)C1` [Compound 44, 1-Benzyl-6′-(4-phenoxyphenyl)-1′,2′-dihydrospiro[azetidine-3,3′-imidazo[1,2-b]pyrazole]-7′-carboxamide] as the molecule, how does the IC50 read?
A: 220 nM

Q: Which IC50 does the source give for `NC(=O)c1c(-c2ccc(Oc3ccccc3)cc2)nn2c1NCC21CNC1` [Compound 45, 6′-(4-Phenoxyphenyl)-1′,2′-dihydrospiro[azetidine-3,3′-imidazo[1,2-b]pyrazole]-7′-carboxamide] here?
A: 510 nM

Q: With `C=CC(=O)N1CC2(CNc3c(C(N)=O)c(-c4ccc(Oc5ccccc5)cc4)nn32)C1` [Compound 46, 1-Acryloyl-6′-(4-phenoxyphenyl)-1′,2′-dihydrospiro[azetidine-3,3′-imidazo[1,2-b]pyrazole]-7′-carboxamide] as the molecule, how does the IC50 read?
A: 5 nM

Q: With `NC(=O)c1c(-c2ccc(Oc3ccccc3)cc2)nn2cc(-c3cccc(N)c3)[nH]c12` [Compound 47, 2-(3-Aminophenyl)-6-(4-phenoxyphenyl)-1H-imidazo[1,2-b]pyrazole-7-carboxamide] as the molecule, how does the IC50 read?
A: 110 nM

Q: Which IC50 does the source give for `NC(=O)c1c(-c2ccc(Oc3ccccc3)cc2)nn2c(-c3cccc(N)c3)c[nH]c12` [Compound 49, 3-(3-Aminophenyl)-6-(4-phenoxyphenyl)-1H-pyrazolo[1,5-a]imidazole-7-carboxamide] here?
A: 29 nM

Q: `NC(=O)c1c(-c2ccc(Oc3ccccc3)cc2)nn2c3c([nH]c12)CCNC3` [Compound 51, 2-(4-Phenoxyphenyl)-5,6,7,8-tetrahydro-4H-pyrazolo[5′,1′:2,3]imidazo[4,5-c]pyridine-3-carboxamide trifluoroacetate] was tested. Which IC50 did it give?
A: 310 nM

Q: `NC(=O)c1c(-c2ccc(Oc3ccccc3)cc2)nn2c3c([nH]c12)CCN(C(=O)CCCl)C3` [Compound 53, 7-(3-Chloropropanoyl)-2-(4-phenoxyphenyl)-5,6,7,8-tetrahydro-4H-pyrazolo[5′,1′:2,3]imidazo[4,5-c]pyridine-3-carboxamide] was tested. Which IC50 did it give?
A: 7.7 nM
